Results as given in article PMC6680510, “Benzotriazine Di-Oxide Prodrugs for Exploiting Hypoxia and Low Extracellular pH in Tumors” (Molecules, 2019).
Several values for one entry are separate records, joined by “and”; a condition that tells them apart may be missing. Identical values can stand only once. Like-named read-outs stand apart in the source and are kept apart here.

Key:
[1] = Solubility in AlphaMEM + 5% FBS, pH 7.4; conditions: culture medium (AlphaMEM + 5% FBS), pH 7.4, plasma or biological fluid
[2] = test system: SiHa cells; assay: IC50 assay (inhibition of proliferation, 4 h exposure, SRB)
Description: Cells were seeded in 96-well plates (SiHa or FaDu 1500 cells/well, UT-SCC-74B 800 cells/well) in 100 μL. After incubation for 2 h, the drugs were added in 50 μL of the same titrated medium at 3× the final concentration to duplicate the wells. After a further 4 h the plates were checked for drug precipitation using a phase contrast microscope, then drugs were removed by aspirating and washing with the standard (pH 7.4) medium, then aspirating again and adding 150 μL of the medium. Cultures were then grown for 5 days before staining with sulphorhodamine B and measuring absorbance, with the estimation of IC50 values using 4-parameter logistic regression, as previously carried out.
The medium and plasticware was equilibrated in the chamber for 3 days prior to use. In the anoxia experiments, FaDu cells were plated in poly-L-lysine coated plates (Corning Cat # 356461) to improve attachment.
Cells were subsequently grown under standard cell culture conditions (oxia, pHe 7.4) for 5 days before staining with sulforhodamine B (SRB). […] (B) SN30000 (2). (C) BTO acid 4a. Values are means and errors are ranges for duplicate cultures in a single experiment. Fitted curves are 4-parameter logistic regressions. PCR = pH cytotoxicity ratio. ACR = anoxia cytotoxicity ratio. TMR = tumor microenvironment ratio.

[3] = One-electron reduction potentials by pulse radiolysis; type: physicochemical; conditions: pH 7.0, equilibrium with redox indicator shown in square brackets
Description: One-electron reduction potentials (E^0′) were determined from the redox equilibria with methylviologen, MV^2+, (E^0′ = […], [34]), dimethyldiquat, V21^2+, (E^0′ = […], [35]), or triquat, TQ^2+, (E^0′ = −548 ± 7 mV [34]). […] Substituting the 3-alkanoic sidechain with the 3-aminoalkanoic sidechain on the BTO 1,4-dioxide lowers the E^0′, as does the addition of the cyclopentane ring. The combined effect is seen for 10a, where the E^0′ value is −565 mV, which is expected to be too low for significant bioreduction under hypoxia.
Time-resolved optical absorption and kinetic studies were carried out using the University of Auckland’s 4 MeV linear accelerator, which has been previously described. The one-electron reduction potentials of the compounds (A) and couple E^0′(A/A^−), versus normal hydrogen electrode, were determined at pH 7.0 (2.5 mM phosphate) by establishing redox equilibria within 50 μs between three mixtures of one-electron reduced A and the viologen reference compounds, MV^2+, TQ^2+ and V21^2+. The determined equilibrium constants were used to calculate the ΔE values using the Nernst equation, correcting for ionic strength effects, as described in the literature.

[4] = test system: FaDu cells; assay: IC50 assay (inhibition of proliferation, 4 h exposure, SRB); type: cell-based
[5] = Homo sapiens, SiHa, 4 h, read-out: Anoxic IC50, SiHa, pHe 6.5, 4 h, anoxic
[6] = Homo sapiens, SiHa, 4 h, read-out: Anoxic IC50, SiHa, pHe 7.4, 4 h, anoxic
[7] = Homo sapiens, SiHa, 4 h, read-out: Oxic IC50, SiHa, pHe 6.5, 4 h, oxic
[8] = Homo sapiens, SiHa, 4 h, read-out: Oxic IC50, SiHa, pHe 7.4, 4 h, oxic
[9] = Homo sapiens, 4 h, pHe 6.5, 4 h, anoxic, read-out: Anoxic IC50
[10] = Homo sapiens, 4 h, pHe 6.5, 4 h, oxic, read-out: Oxic IC50
[11] = Homo sapiens, 4 h, pHe 7.4, 4 h, anoxic, read-out: Anoxic IC50
[12] = Homo sapiens, 4 h, pHe 7.4, 4 h, oxic, read-out: Oxic IC50

Row | SMILES | melting point | solubility ([1]; kinetic from dmso stock) [µM] | solubility ([1]; thermodynamic from solid) [µM] | IC50 [2, 5] [µM] | IC50 [2, 6] [µM] | IC50 [2, 7] [µM] | IC50 [2, 8] [µM] | TMR (overall TME ratio = oxic IC50 pHe 7.4/anoxic IC50 pHe 6.5) ([2]; SiHa) | PCR Anoxic (IC50 at pHe 7.4/IC50 at pHe 6.5) ([2]; SiHa, anoxic) | ACR (anoxic cytotoxicity ratio = oxic IC50/anoxic IC50) ([2]; SiHa, pHe 6.5) | ACR (anoxic cytotoxicity ratio = oxic IC50/anoxic IC50) ([2]; SiHa, pHe 7.4) | TMR (oxic IC50 pHe 7.4/anoxic IC50 pHe 6.5) [4] | IC50 [4, 9] [µM] | IC50 [4, 10] [µM] | IC50 [4, 11] [µM] | IC50 [4, 12] [µM] | PCR Anoxic (IC50 at pHe 7.4/IC50 at pHe 6.5) ([4]; anoxic) | PCR oxic (IC50 at pHe 7.4/IC50 at pHe 6.5) ([4]; oxic) | ACR (oxic IC50/anoxic IC50) ([4]; pHe 6.5) | ACR (oxic IC50/anoxic IC50) ([4]; pHe 7.4) | also measured
1 | CCOC(=O)CCCNc1n[n+]([O-])c2cc(C)ccc2[n+]1[O-] [Compound 12b, 3-((4-Ethoxy-4-oxobutyl)amino)-7-methylbenzo[e][1,2,4]triazine 1,4-Dioxide] | 191 to 192 °C | 160 |  |  |  |  |  |  |  |  |  |  |  |  |  |  |  |  |  |  | 
2 | O=C(O)CNc1n[n+]([O-])c2ccccc2[n+]1[O-] [Compound 8a, 3-((Carboxymethyl)amino)benzo[e][1,2,4]triazine 1,4-dioxide] |  |  | 8700 | 135 ± 18 | 154 ± 26 | > 2000 | > 2000 | >15 | 1.14 ± 0.25 | >15 | >13 | >6.9 | 290 ± 48 | 1450 ± 268 | 289 ± 25 | > 2000 | 1.0 ± 0.19 | >1 | 4.99 ± 1.24 | >6.9 | E^0′ one-electron reduction potential [3]: −470 ± 9 [MV^2+] mV
3 | COC(=O)CCc1n[n+]([O-])c2cc3c(cc2[n+]1[O-])CCC3 [Compound 7b, 3-(3-Methoxy-3-oxopropyl)-7,8-dihydro-6H-indeno[5,6-e][1,2,4]triazine 1,4-Dioxide] | 170 to 171 °C |  | 280 | 15.1 ± 3.1 | 7.3 ± 1.6 | 195 ± 22 | > 200 | >13 | 0.48 ± 0.15 | 13.0 ± 3.0 | >27 | >10 | 20 ± 5.4 | 157 ± 28 | 11.5 ± 2.2 | > 200 | 0.58 ± 0.19 | >1.2 | 7.84 ± 2.56 | >17 | PCR oxic (IC50 at pHe 7.4/IC50 at pHe 6.5) ([2]; SiHa, oxic): >1
4 | Cc1ccc2c(c1)[n+]([O-])nc(CCC(=O)O)[n+]2[O-] [Compound 5a, 3-(2-Carboxyethyl)-7-methylbenzo[e][1,2,4]triazine 1,4-Dioxide] | 181 to 183 °C (dec.) | > 980 |  | 225 ± 38 | 542 ± 113 | 449 ± 188 | > 3000 | >13 | 2.41 ± 0.64 | 1.99 ± 0.90 | >5.5 | 13.9 ± 1.7 | 203 ± 18 | 1100 ± 110 | 924 ± 64 | 2770 ± 690 | 4.29 ± 0.55 | 2.55 ± 0.32 | 5.49 ± 0.26 | 3.00 ± 0.22 | PCR oxic (IC50 at pHe 7.4/IC50 at pHe 6.5) ([2]; SiHa, oxic): >6.7
5 | O=C(O)CCCNc1n[n+]([O-])c2ccccc2[n+]1[O-] [Compound 10a, 3-((3-Carboxypropyl)amino)benzo[e][1,2,4]triazine 1,4-Dioxide] |  |  |  |  |  |  |  | >4.8 | >4.8 |  |  | >4 |  |  |  |  | 1.58 ± 0.37 |  | >4 | >3 | ACR (anoxic cytotoxicity ratio = oxic IC50/anoxic IC50) [2]: >4.8; IC50 ([2]; read-out: Anoxic IC50, SiHa, pHe 6.5, 4 h, anoxic): 416 ± 57 µM; IC50 ([2]; read-out: Anoxic IC50, SiHa, pHe 7.4, 4 h, anoxic): > 2000 µM; IC50 ([2]; read-out: Oxic IC50, SiHa, pHe 6.5, 4 h, oxic): > 2000 µM; IC50 ([2]; read-out: Oxic IC50, SiHa, pHe 7.4, 4 h, oxic): > 2000 µM; E^0′ one-electron reduction potential [3]: −565 mV and −565 ± 8 [TQ^2+] mV; IC50 ([4]; pHe 6.5, 4 h, anoxic, read-out: Anoxic IC50): 543 ± 126 µM; IC50 ([4]; pHe 6.5, 4 h, oxic, read-out: Oxic IC50): > 2000 µM; IC50 ([4]; pHe 7.4, 4 h, anoxic, read-out: Anoxic IC50): 856 ± 22 µM; IC50 ([4]; pHe 7.4, 4 h, oxic, read-out: Oxic IC50): > 2000 µM

The next lines start with results.

Row | melting point | solubility ([1]; kinetic from dmso stock) [µM] | solubility ([1]; thermodynamic from solid) [µM] | SMILES | IC50 [2, 5] [µM] | IC50 [2, 6] [µM] | IC50 [2, 7] [µM] | IC50 [2, 8] [µM] | TMR (overall TME ratio = oxic IC50 pHe 7.4/anoxic IC50 pHe 6.5) ([2]; SiHa) | PCR Anoxic (IC50 at pHe 7.4/IC50 at pHe 6.5) ([2]; SiHa, anoxic) | ACR (anoxic cytotoxicity ratio = oxic IC50/anoxic IC50) ([2]; SiHa, pHe 6.5) | ACR (anoxic cytotoxicity ratio = oxic IC50/anoxic IC50) ([2]; SiHa, pHe 7.4) | TMR (oxic IC50 pHe 7.4/anoxic IC50 pHe 6.5) [4] | IC50 [4, 9] [µM] | IC50 [4, 10] [µM] | IC50 [4, 11] [µM] | IC50 [4, 12] [µM] | PCR Anoxic (IC50 at pHe 7.4/IC50 at pHe 6.5) ([4]; anoxic) | PCR oxic (IC50 at pHe 7.4/IC50 at pHe 6.5) ([4]; oxic) | ACR (oxic IC50/anoxic IC50) ([4]; pHe 6.5) | ACR (oxic IC50/anoxic IC50) ([4]; pHe 7.4) | also measured
6 | 171 to 178 °C |  | 70 | COC(=O)CNc1n[n+]([O-])c2cc3c(cc2[n+]1[O-])CCC3 [Compound 9b, 3-((2-Methoxy-2-oxoethyl)amino)-7,8-dihydro-6H-indeno[5,6-e][1,2,4]triazine 1,4-dioxide] | 10.9 ± 1.42 | 8.08 ± 2.23 | 42.2 ± 5.7 | > 53 | >4.6 | 0.74 ± 0.23 | 3.87 ±0.73 | >6.5 | >1.4 | 37.7 ± 8 | > 53 | 46.9 ± 3 | > 53 | 1.24 ± 0.28 |  | >1 | >1 | PCR oxic (IC50 at pHe 7.4/IC50 at pHe 6.5) ([2]; SiHa, oxic): >1.2
7 | 173 to 175 °C (dec.) | > 960 |  | Cc1ccc2c(c1)[n+]([O-])c(CCC(=O)O)n[n+]2[O-] [Compound 6a, 3-(2-Carboxyethyl)-6-methylbenzo[e][1,2,4]triazine 1,4-Dioxide] | 364 ± 47 | 1180 ± 190 | > 1000 | > 1000 | >2.7 | 3.24 ± 0.67 | >2.7 |  | >5 | 205 ± 25 | > 1000 | > 1000 | > 1000 | >5 |  | >5 |  | 
8 | 165 to 167 °C | > 950 |  | COC(=O)CCc1n[n+]([O-])c2cc(C)ccc2[n+]1[O-] [Compound 5b, 3-(3-Methoxy-3-oxopropyl)-7-methylbenzo[e][1,2,4]triazine 1,4-Dioxide] |  |  |  |  |  |  |  |  |  |  |  |  |  |  |  |  |  | 
